Experimental data taken from US12616681B2, “Compositions and methods for treating renal injury” (priority 2019, dated 2026).

What was measured:
[1] = tested on: mice; test: Induction of CIAKI by intravenous contrast media in mice; assay type: in vivo, C57/BL6 mice; conditions: 10 gI/kg iv; for Cr vs normal control / KIM-1 vs normal control / NGAL vs normal control: 48 h after administration
Description: The two different […] in terms of viscosity and osmolality were administered intravenously to 5 mice for each group. Ten grams of iodine per body weight (gI/kg) of each CM was injected by a 26-gauge syringe through the tail vein. The blood samples for the analysis of functional assessment of kidney injury such as Cr, NGAL, and KIM-1 were taken at 48 h after administration (FIGS. 10(A, B)).

[2] = tested on: mice with ischemic AKI (bilateral renal IRI); test: Renal IRI (ischemic AKI) mouse model: renal function markers; assay type: in vivo, C57/BL6 mice
Description: Briefly, mice were anesthetized with isoflurane using a vaporizer, and bilateral renal arteries were clamped for 30 min (2, 49). After the ischemic time, clamps were released to induce blood reperfusion. […] Serum and kidney tissue were collected 24 h after renal IRI. […] After reperfusion for 24 h, kidney tissues (˜20 mg) were homogenized in cold PBS containing indomethacin (10 μg/mL) and then centrifuged for 10 min at 12,000 rpm. Protein concentrations of supernatant were determined by BCA assay (ThermoFisher Scientific, Rockford, IL). The PGE2 level was measured using a PGE2 ELISA kit (R&D Systems, Minneapolis, MN) in triplicate. PGE2 levels were expressed as nanograms of PGE2 per milligram of protein. Renal function was assessed by determining the serum levels of blood urea nitrogen (BUN; Abcam), serum creatinine (Agilent 6410 LC-MS/MS, Agilent, Santa Clara, CA), lipocalin-2 (R&D Systems), and kidney injury molecule-1 (KIM-1; R&D Systems) after reperfusion for 24 h. Measurement of serum creatinine was by HPLC. Serum creatinine was assessed using an Agilent 6410 LC-MS/MS system coupled with an Agilent 1200 series HPLC system (Agilent). […] The mixture was centrifuged at 13,000 rpm for 10 min after vigorous vortex, and 1 μL of supernatant was then injected into the LC-MS/MS system. The chromatography separation was performed on a Hypersil GOLD C18 column (150×2.1 mm, 3 m, Thermo Scientific) using a mobile phase of 0.1% formic acid solution and acetonitrile [70:30 (vol/vol)]. The flow rate was 0.2 mL/min. Electrospray ionization was performed in the positive ion mode. The capillary voltage was set at 4,000 V. Nitrogen as the nebulizing gas was set at 15 psi, and the drying gas temperature was set at 300° C., with a flow rate of 6 L/min. The multiple-reaction monitoring mode using specific precursor/production transition was used for quantification. […] The peak areas for all analytes were integrated automatically using Agilent Mass Hunter Analysis software (version B.01.04).

[3] = tested on: mice with ischemic AKI (bilateral renal IRI); test: Renal IRI model: necrotic and apoptotic cell death, gross pathology; assay type: in vivo, C57/BL6 mice; conditions: 24 h after renal IRI; 5 mg/kg ip three times
From the text: To evaluate necrosis, 5-μm-thick paraffin sections were stained with hematoxylin and eosin. Tubular injury of individual slides was scored semi-quantitatively according to a scoring system by a pathologist in a blinded manner. The scoring system was as follows: 0, no damage; 1, patchy isolated unicellular necrosis; 2, tubular necrosis <25%; 3, tubular necrosis 25-50%; and 4, tubular necrosis >50%. To analyze the frequency of apo ptosis, 5-μm-thick paraffin sections were subjected to a TUNEL assay (Millipore, Temecula, CA) according to the manufacturer's protocol. TUNEL-positive cells were counted in at least five separate fields (64 magnification) in the outer medulla, and the apoptosis index (in %, number of apoptosis cells/total number of cells) was calculated using GENASIS software.

[4] = tested on: mice with ischemic AKI (bilateral renal IRI); test: Renal IRI model: proinflammatory cytokines and HMGB1; assay type: in vivo, C57/BL6 mice; conditions: 24 h after renal IRI, vs IRI-vehicle mice
Description: Inflammatory cytokine mRNA and protein levels were measured by real-time PCR and ELISA. Kidney tissue and serum were harvested after reperfusion for 24 h. Total RNA was extracted from frozen kidney tissue using TRIzol reagent (ThermoFisher Scientific) according to the manufacturer's protocol. RNA was converted to cDNA using oligo-dT primers. IL-17, TNF-α, and IL-1b mRNA levels were determined by real-time PCR. Serum IL-17 (R&D Systems), TNF-α (R&D Systems), and IL-10 (R&D Systems) were measured using commercial ELISA kits according to the manufacturer's instructions.

[5] = tested on: mice with ischemic AKI (bilateral renal IRI); test: Renal IRI model: renal vasodilation and renal Doppler flux (RBF); assay type: in vivo, C57/BL6 mice; conditions: 24 h following IRI
Description: The inner arteriolar area of the outer medulla was determined using α-smooth muscle actin (α-SMA)-stained sections. Kidneys were removed without perfusion under inhalational isoflurane anesthesia, divided into three pieces horizontally, immediately fixed in 10% formalin, and then embedded in paraffin. The inner area of α-SMA-positive vessels in the outer medulla was measured using ImageJ. The results are expressed as average areas of renal arteries in the outer medulla. As a surrogate for RBF, we used noninvasive laser Doppler flowmetry (periflux system 5000, Perimed) to measure flux, placing laser-Doppler probes at a fixed position on the kidney surface and recording renal cortical measurements. […] The relative increase represents the percent increase in RDF from baseline to peak for each test.

[6] = tested on: mice with ischemic AKI (bilateral renal IRI); test: Renal IRI model: cAMP, AMP and adenosine levels; assay type: in vivo, C57/BL6 mice; conditions: 24 h post-IRI, vs sham mice
Description: After reperfusion for 24 h, kidney tissues were harvested, homogenized in 10 volumes of 0.1 M HCl, and centrifuged for 10 min at 12,000 rpm. cAMP levels in kidney tissues and serum were measured using a cAMP Complete ELISA kit (Enzo Life Science, Farmingdale, NY). AMP and adenosine in kidney tissue were assessed by Agilent 6410 LC-MS/MS. Serum adenosine was measured using an assay kit (Abnova, Walnut, CA).

[7] = tested on: mice with ischemic AKI (bilateral renal IRI); test: Renal IRI model: PGE2 (EP1-EP4) and adenosine A2A receptor expression; assay type: in vivo, C57/BL6 mice; conditions: 24 h post-IRI
Description: PGE2 receptors (EP1, EP2, EP3, and EP4) and adenosineA2A receptor mRNA levels were deter-mined by real-time PCR. Their protein levels were determined by Western blot assay and immunofluorescence analysis.

[8] = tested on: contrast-induced acute kidney injury (CIAKI) mice; test: CIAKI mouse model: renal function (serum creatinine, NGAL, KIM-1); assay type: in vivo, C57/BL6 mice
Description: Female mice were injected with 10 gI/kg of Visipaque (iodixanol) via the tail vein. […] For inhibition of the EP4s, mice were treated with 0.2 mg/kg/day of ONO-AE3-208 by subcutaneous injection for 14 days. Serum and kidney tissue were collected 48 h after the iodixanol injection.
Renal function was assessed by determining the serum levels of creatinine (Arbor Assays, Ann Arbor, MI, USA), NGAL (R&D Systems), and KIM-1 (R&D Systems) at 48 h after the iodixanol injection.

[9] = tested on: contrast-induced acute kidney injury (CIAKI) mice; test: CIAKI mouse model: necrotic and apoptotic cell death, gross findings; assay type: in vivo, C57/BL6 mice; conditions: 48 h after CM
Description: Kidneys were harvested at 48 h after the CM injection, fixed in 4% phosphate-buffered formalin, and embedded in paraffin. To evaluate necrosis, […] paraffin sections were stained with hematoxylin and eosin. Tubular injury was scored semi-quantitatively according to a system by a pathologist who examined at least 20 separate fields (400× magnification) in the outer medulla, which is the zone most sensitive to ischemic injury. The scoring system was as follows: 0, no damage; 1, patchy isolated unicellular necrosis; 2, tubular necrosis <25%; 3, tubular necrosis 25-50%; and 4, tubular necrosis >50%. At least 20 consecutive high-power fields per section were scored by two operators blind to the details of the experiment. To analyze the frequency of apoptosis, […] paraffin sections were subjected to terminal deoxynucleotidyl transferase-mediated dUTP nick-end labeling (TUNEL) assay (Millipore, Temecula, CA, USA) according to the manufacturer's protocol. Four […] paraffin sections were incubated with the TUNEL reaction mixture at 37° C. for 1 h, followed by incubation with a horseradish peroxidase-conjugated detection antibody. The signals were visualized using diaminobenzidine (Sigma-Aldrich). After counterstaining with Mayer's hematoxylin, TUNEL-positive cells were counted in at least five separate fields (640× magnification) in the outer medulla, and the apoptosis index (%, number of apoptosis cells/total number of cells) was calculated using GENASIS software.

[10] = tested on: human renal proximal tubular epithelial cells (hRPTECs); test: hRPTEC cell viability (MTT assay) with iodixanol; assay type: cell-based; conditions: iodixanol 50 mgI/mL, 24 h; PGE1 100 ng/mL, PGE2 100 nM vs CM vehicle; CM vs normal control
Description: 3-(4,5-Dimethyl thiazol-2-yl)-2,5-diphenyl tetrazolium bromide (MTT) assay was used to assess cell viability. The hRPTECs were cultivated in 96-well plates at a density of 10^5 cells/mL and then incubated for 24 h. […] Then, 10 µM MTT (Sigma-Aldrich) was added to each well for an additional 4 h. The blue MTT formazan precipitate was dissolved in 100 mL dimethyl sulfoxide. The absorbance at 540 nm was measured with a multi-well plate reader. Cell viability was expressed as a percentage of the no-treatment cells, as the mean value±standard deviation of the six independent experiments.

[11] = tested on: human renal proximal tubular epithelial cells (hRPTECs); test: hRPTEC apoptosis by flow cytometry with iodixanol; assay type: cell-based
Description: Human renal proximal tubular epithelial cells (hRPTECs) were purchased from the American Type Culture Collection (#PCS-400-010TM, Manassas, VA, USA). These cells were grown in 75 cm^2 flasks in Renal Epithelial Cell Basal Medium (PCS-400-030TM, ATCCVR) supplemented with Renal Epithelial Cell Growth Kit (PCS-400-040TM, ATCCVR).
After the treatment described in the section above, the hRPTECs were pelleted by centrifugation at 1800 rpm for 10 min and incubated with annexin V fluorescein isothiocyanate and propidium iodide using an Apoptosis Detection Kit I (#556547, BD Biosciences, San Jose, CA, USA) according to the manufacture's instruction. Then quantification was conducted using a FACSC flow cytometer with Cell Quest software (BD Biosciences).

[12] = tested on: contrast-induced acute kidney injury (CIAKI) mice; test: CIAKI mouse model: renal blood flow (laser Doppler flux); assay type: in vivo, C57/BL6 mice
Description: Total RBF was assessed by measuring renal Doppler flux using noninvasive laser Doppler flowmetry (PeriFlux System 5000, Perimed AB, Sweden). Laser Doppler probes were placed on the kidney surface to measure the renal flux. The flux was measured 48 h after CM administration. The relative increase represented the percentage increase in renal blood flow from baseline to peak for each test. Statistical significance was set as p<0.05.

[13] = iodixanol 10 gI/kg + vehicle, 48 h after CM

CN(CC(O)CO)C(=O)c1c(I)c(NC(=O)C(CO)CO)c(I)c(C(=O)N(C)CC(O)CO)c1I (stereo not drawn) [Xenetix]
Cr vs normal control [1]: significant increase
KIM-1 vs normal control [1]: did not show significant differences
NGAL vs normal control [1]: did not show significant differences

COc1ccc2c(c1)c(CC(=O)O)c(C)n2C(=O)c1ccc(Cl)cc1 [indomethacin, reference compound]
BUN (serum) ([2]; 24 h after renal IRI, vs IRI-vehicle mice, dosing before and after IRI): increase
tissue congestion in the outer medulla (gross pathology) [3]: worsened
HMGB1 levels in kidney tissue [4]: increased
RDF-inferred RBF [5]: reduced
renal cAMP [6]: reduced
EP1 receptor mRNA levels [7]: increased
EP4 receptor mRNA levels [7]: reduced
levels of EP2 receptors [7]: no effect
levels of EP3 receptors [7]: no effect

CCCCC[C@H](O)/C=C/[C@H]1[C@H](O)CC(=O)[C@@H]1CCCCCCC(=O)O [PGE1, prostaglandin E1]
serum creatinine, effect in words ([8]; CIAKI mice, 48 h after CM): decreased
TUNEL-positive cell proportions vs CIAKI mice, in words [9]: significantly lower
renal injury score, effect in words [9]: No reduction
vascular congestion in the outer medullary region (gross findings) [9]: prominent vascular congestion
cell viability (MTT), in words [10]: did not show any difference
apoptotic rate vs CM vehicle group, in words ([11]; PGE1 100 ng/mL with iodixanol 50 mgI/mL): no differences
preservation of RBF from CM-induced reduction, in words ([12]; 48 h after CM): did not

CC(C(=O)Nc1cc(C#N)ccc1CCCC(=O)O)c1ccc(F)c2ccccc12 (stereo not drawn) [ONO-AE3-208]
beneficial effects of SW033291 on BUN, serum creatinine, serum Kim-1 and RDF-inferred RBF ([2]; ONO-AE3-208 10 mg/kg co-administered with the three-dose schedule of SW033291 in IRI mice): substantially blocked
serum creatinine, absence or presence of ONO-AE3-208 ([8]; CIAKI mice (FIG. 15E), SW033291 line = CM + SW033291, ONO-AE3-208 line = CM + ONO-AE3-208 + SW033291): 1.51 ± 0.31 mg/dL
serum NGAL, absence or presence of ONO-AE3-208 ([8]; CIAKI mice (FIG. 15F), SW033291 line = CM + SW033291, ONO-AE3-208 line = CM + ONO-AE3-208 + SW033291): 229.85 ± 27.12 ng/mL
serum KIM-1, absence or presence of ONO-AE3-208 ([8]; CIAKI mice (FIG. 15G), SW033291 line = CM + SW033291, ONO-AE3-208 line = CM + ONO-AE3-208 + SW033291): 0.85 ± 0.26 ng/mL
increase in RBF by SW033291 treatment ([12]; ONO-AE3-208 with SW033291 (FIG. 15H)): blocked the increase

CC(=O)N(CC(O)CN(C(C)=O)c1c(I)c(C(=O)NCC(O)CO)c(I)c(C(=O)NCC(O)CO)c1I)c1c(I)c(C(=O)NCC(O)CO)c(I)c(C(=O)NCC(O)CO)c1I (stereo not drawn) [Visipaque, iodixanol]
necrosis and apoptosis (Renal injury score and TUNEL assay) vs normal control ([1]; 48 h): significantly higher
Cr vs normal control [1]: elevation
KIM-1 vs normal control [1]: elevation
NGAL vs normal control [1]: elevation
serum KIM-1 in CM-treated mice [8, 13]: 1.41 ± 0.41 ng/mL
serum NGAL in CM-treated mice [8, 13]: 299.71 ± 38.64 ng/mL
serum creatinine in CM-treated mice [8, 13]: 1.94 ± 0.24 mg/dL
cell viability (MTT), in words [10]: significantly lower
increase of apoptosis rate of hRPTECs in the CM group compared to the normal group ([11]; iodixanol 50 mgI/mL, 24 h): more than 2.5 times
